Test results reported in patent US11000033B2, “Ketone or oxime compound, and herbicide” (NISSAN CHEMICAL CORPORATION, priority 2014, dated 2021).

Assays:
Format in all cases: in vivo
[1] = tested on: Digitaria ciliaris; assay: Test Example 4: herbicidal effect by soil treatment (symbol F); details: application herbicide amount 320 g/ha
Summary of the method: (§1)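 Seeds were sown in sterilized diluvial soil, covered with about 1.5 cm of soil, and the soil surface was sprayed with a water-diluted emulsion of the compound at a predetermined rate. Plants grew in a greenhouse at 25° C. to 30° C.; effects were scored visually 3 weeks after application.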

[2] = tested on: Lolium multiflorum Lam.; assay: Test Example 5: herbicidal effect by foliage application, plastic box (symbol K); details: 320 g/ha, 3 weeks after application
Summary of the method: (§2)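 Visual herbicidal score, taken three weeks post-application, of seedlings sprayed on the foliage with water-diluted emulsion at a predetermined amount; plants were 14 days old, greenhouse-raised at 25° C. to 30° C.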

[3] = tested on: corn; assay: Test Example 5: effect on crop by foliage application, plastic box (symbol c); details: 320 g/ha, 3 weeks after application
Summary of the method: (§3)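 Diluvial soil, sterilized and boxed (21 × 13 × 7 cm), received spot-sown seed covered by about 1.5 cm soil; plants were then greenhouse-grown at 25–30° C.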

[4] = tested on: Echinochloa oryzacola Vasing.; assay: Test Example 1: herbicidal activity, application before weed generation in submerged conditions (symbol A); details: application herbicide amount 320 g/ha
Summary of the method: (§4)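 Paddy pre-emergence test. Formulated emulsion, water-diluted to a predetermined rate, is applied to floodwater on sowing day; rice transplanted at 2.5 leaves. Effect read at 3 weeks on a 0–5 herbicidal-ratio scale.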

[5] = tested on: Veronica persica; assay: Test Example 4: herbicidal effect by soil treatment (symbol R); details: application herbicide amount 320 g/ha
Summary of the method: as §1

[6] = tested on: Avena fatua; assay: Test Example 5: herbicidal effect by foliage application, plastic box (symbol I); details: 320 g/ha, 3 weeks after application
Summary of the method: as §2

[7] = tested on: Veronica persica; assay: Test Example 5: herbicidal effect by foliage application, plastic box (symbol R); details: 320 g/ha, 3 weeks after application
Summary of the method: as §2

[8] = tested on: beet; assay: Test Example 5: effect on crop by foliage application, plastic box (symbol f); details: 320 g/ha, 3 weeks after application
Summary of the method: as §3

[9] = tested on: Monochoria vaginalis; assay: Test Example 1: herbicidal activity, application before weed generation in submerged conditions (symbol C); details: application herbicide amount 320 g/ha
Summary of the method: as §4

[10] = tested on: rapeseed; assay: Test Example 5: effect on crop by foliage application, plastic box (symbol g); details: 320 g/ha, 3 weeks after application
Summary of the method: as §3

[11] = tested on: Echinochloa oryzacola Vasing.; assay: Test Example 2: herbicidal activity, application during weed generation in submerged conditions (symbol A); details: Table 23; application herbicide amount 320 g/ha; grade 0-5 by criteria of Test Example 1
Summary of the method: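 Flooded-soil post-emergence test: emulsion of compound, water-diluted to target rate, applied to paddy water surface at 1–2 leaf stage of mixed-sown weeds (alluvial soil, 4 cm water, 25–30° C. greenhouse); visual rating 3 weeks after application.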

Structure (SMILES)	F: Digitaria ciliaris, herbicidal effect grade [1]	K: Lolium multiflorum Lam., herbicidal effect grade [2]	c: corn, effect on crop grade [3]	Herbicidal effect grade, A: Echinochloa oryzacola Vasing. [4]	R: Veronica persica, herbicidal effect grade [5]	I: Avena fatua, herbicidal effect grade [6]	R: Veronica persica, herbicidal effect grade [7]	f: beet, effect on crop grade [8]	Herbicidal effect grade, C: Monochoria vaginalis [9]	g: rapeseed, effect on crop grade [10]	Herbicidal effect grade, A: Echinochloa oryzacola Vasing. [11]	K: Lolium multiflorum Lam., herbicidal effect (criteria of Test Example 1) [2]	c: corn, effect on crop (criteria of Test Example 1) [3]	I: Avena fatua, herbicidal effect (criteria of Test Example 1) [6]	R: Veronica persica, herbicidal effect (criteria of Test Example 1) [7]	f: beet, effect on crop (criteria of Test Example 1) [8]	g: rapeseed, effect on crop (criteria of Test Example 1) [10]	Herbicidal effect grade, F: Digitaria ciliaris [1]	Herbicidal effect grade, R: Veronica persica [5]
CON=C(C)CC1CC(O)=C(c2c(C)cc(-c3ccccn3)cc2C)C1=O (mixture of isomers) [6-051]	5 (Herbicidal ratio of 90% or more (almost completely withered))	5 (Herbicidal ratio of 90% or more (almost completely withered))	5 (Herbicidal ratio of 90% or more (almost completely withered))	4 (Herbicidal ratio of 70% or higher and lower than 90%)	0 (Herbicidal ratio of 5% or lower (almost no effect))	4 (Herbicidal ratio of 70% or higher and lower than 90%)	4 (Herbicidal ratio of 70% or higher and lower than 90%)	3 (Herbicidal ratio of 40% or higher and lower than 70%)	2 (Herbicidal ratio of 20% or higher and lower than 40%)	5 (Herbicidal ratio of 90% or more (almost completely withered))	5 (Herbicidal ratio of 90% or more (almost completely withered))								
CON=C(C)CC1CC(O)=C(c2c(C)cc(OCc3ccncc3)cc2C)C1=O (mixture of isomers) [6-053]	4 (Herbicidal ratio of 70% or higher and lower than 90%)	5 (Herbicidal ratio of 90% or more (almost completely withered))	2 (Herbicidal ratio of 20% or higher and lower than 40%)	4 (Herbicidal ratio of 70% or higher and lower than 90%)	0 (Herbicidal ratio of 5% or lower (almost no effect))	3 (Herbicidal ratio of 40% or higher and lower than 70%)	0 (Herbicidal ratio of 5% or lower (almost no effect))	0 (Herbicidal ratio of 5% or lower (almost no effect))	1 (Herbicidal ratio of 5% or higher and lower than 20%)	3 (Herbicidal ratio of 40% or higher and lower than 70%)	3 (Herbicidal ratio of 40% or higher and lower than 70%)								
CON=C(C)CC1CC(O)=C(c2c(C)cc(-c3ccc(OC(F)(F)F)cc3)cc2C)C1=O (mixture of isomers) [6-056]	0 (Herbicidal ratio of 5% or lower (almost no effect))			3 (Herbicidal ratio of 40% or higher and lower than 70%)	0 (Herbicidal ratio of 5% or lower (almost no effect))				0 (Herbicidal ratio of 5% or lower (almost no effect))		1 (Herbicidal ratio of 5% or higher and lower than 20%)	4 (Herbicidal ratio of 70% or higher and lower than 90%)	1 (Herbicidal ratio of 5% or higher and lower than 20%)	3 (Herbicidal ratio of 40% or higher and lower than 70%)	0 (Herbicidal ratio of 5% or lower (almost no effect))	0 (Herbicidal ratio of 5% or lower (almost no effect))	3 (Herbicidal ratio of 40% or higher and lower than 70%)		
CON=C(C)CC1CC(OC(=O)N2CCOCC2)=C(c2c(C)cc(-c3ccc(Cl)cc3F)cc2C)C1=O (centres unmarked) [6-089]				5 (Herbicidal ratio of 90% or more (almost completely withered))					3 (Herbicidal ratio of 40% or higher and lower than 70%)		5 (Herbicidal ratio of 90% or more (almost completely withered))	4 (Herbicidal ratio of 70% or higher and lower than 90%)		5 (Herbicidal ratio of 90% or more (almost completely withered))	4 (Herbicidal ratio of 70% or higher and lower than 90%)	0 (Herbicidal ratio of 5% or lower (almost no effect))	4 (Herbicidal ratio of 70% or higher and lower than 90%)	5 (Herbicidal ratio of 90% or more (almost completely withered))	0 (Herbicidal ratio of 5% or lower (almost no effect))
CON=C(C)CC1CC(OC(=O)N2CCOCC2)=C(c2c(C)cc(C)cc2OC)C1=O (centres unmarked) [6-094]				5 (Herbicidal ratio of 90% or more (almost completely withered))					3 (Herbicidal ratio of 40% or higher and lower than 70%)		5 (Herbicidal ratio of 90% or more (almost completely withered))	5 (Herbicidal ratio of 90% or more (almost completely withered))	5 (Herbicidal ratio of 90% or more (almost completely withered))	5 (Herbicidal ratio of 90% or more (almost completely withered))	4 (Herbicidal ratio of 70% or higher and lower than 90%)		4 (Herbicidal ratio of 70% or higher and lower than 90%)	5 (Herbicidal ratio of 90% or more (almost completely withered))	3 (Herbicidal ratio of 40% or higher and lower than 70%)
